# Assay results: ChEMBL document CHEMBL5042529, “One-Pot Enzymatic Synthesis and Biological Evaluation of Ganglioside GM3 Derivatives as Potential Cancer Immunotherapeutics” (J Med Chem, 2022)
# Activity calls are given as the source filed them. No cut-off for these calls is given here.
# Experiments:
# A-431 [1] = assay: Inhibition of cell invasion in human A-431 cells assessed as inhibition rate at 50 uM incubated for 24 hrs by crystal violet staining based transwell assay; assay type: functional
# [2] = Half life in C57BL/6 mouse 10 mg/kg, iv measured upto 24 hrs; assay type: ADME, organism-based; conditions: in vivo
# [3] = Cytotoxicity against human A-431 cells measured after 24 hrs by MTT assay; assay type: toxicity, cell-based
# [4] = Cytotoxicity against human HeLa cells measured after 24 hrs by MTT assay; assay type: toxicity, cell-based
# [5] = Cytotoxicity against mouse Neuro2a cells measured after 24 hrs by MTT assay; assay type: toxicity, cell-based, N2a
# [6] = Cytotoxicity against rat PC-12 cells measured after 24 hrs by MTT assay; assay type: toxicity, cell-based
# [7] = Cytotoxicity against CHO cells measured after 24 hrs by MTT assay; assay type: toxicity, cell-based, Cricetulus griseus; conditions: Chinese hamster
# [8] = Apparent volume of distribution in C57BL/6 mouse at 10 mg/kg, iv measured upto 24 hrs; assay type: ADME, organism-based; conditions: in vivo
# [9] = Clearance in C57BL/6 mouse at 10 mg/kg, iv measured upto 24 hrs; assay type: ADME, organism-based; conditions: in vivo
# A-431 [10] = assay: Antimigratory activity in human A-431 cells assessed as inhibition of scratch at 50 uM measured after 24 hrs by Wound healing assay; assay type: functional; design: scale not given: the % may be the effect or the level left
# Mus musculus [11] = assay: Effect on IL-2 expression in C57BL/6 mouse transfected with mouse B16-Luc cells assessed as serum IL-2 level at 5 mg/kg, ip qd treated for 7 days by ELISA; assay type: functional, organism-based; conditions: time 7.0 day
# Mus musculus [12] = assay: Effect on IL-2 expression in C57BL/6 mouse transfected with mouse B16-Luc cells assessed as serum […] level at 5 mg/kg, ip qd treated for 7 days by ELISA; assay type: functional, organism-based; conditions: time 7.0 day
# Mus musculus [13] = assay: Effect on IL-2 expression in C57BL/6 mouse transfected with mouse B16-Luc cells assessed as serum IgG level at 5 mg/kg, ip qd treated for 7 days by ELISA; assay type: functional, organism-based; conditions: time 7.0 day
# Mus musculus [14] = assay: Increase in IL-12 expression in BALB/c mouse transfected with mouse B16-Luc cells assessed as […] at 5 mg/kg, ip qd treated for 7 days by ELISA; assay type: functional, organism-based; conditions: time 7.0 day
# Mus musculus [15] = assay: Effect on IL-2 expression in BALB/c mouse transfected with mouse B16-Luc cells assessed as serum IL-2 level at 5 mg/kg, ip qd treated for 7 days by ELISA; assay type: functional, organism-based; conditions: time 7.0 day
# Mus musculus [16] = assay: Effect on IgG expression in BALB/c mouse transfected with mouse B16-Luc cells assessed as serum IgG level at 5 mg/kg, ip qd treated for 7 days by ELISA; assay type: functional, organism-based; conditions: time 7.0 day
# [17] = Downregulation of VAVI gene expression in human A431 cells at 50 uM incubated for 24 hrs by RNA-seq analysis; assay type: functional; conditions: A-431
# [18] = Downregulation of LAMA5 gene expression in human A431 cells at 50 uM incubated for 24 hrs by RNA-seq analysis; assay type: functional; conditions: A-431
# [19] = Downregulation of HSPG2 gene expression in human A431 cells at 50 uM incubated for 24 hrs by RNA-seq analysis; assay type: functional; conditions: A-431
# [20] = Downregulation of XIAP gene expression in human A431 cells at 50 uM incubated for 24 hrs by RNA-seq analysis; assay type: functional; conditions: A-431
# [21] = Reduction of integrin beta1 expression in human A431 cells at 50 uM incubated for 24 hrs by Western blotting analysis; assay type: functional; conditions: A-431
# [22] = Reduction of VAVI expression in human A431 cells at 50 uM incubated for 24 hrs by Western blotting analysis; assay type: functional; conditions: A-431
# [23] = Toxicity in C57BL/6 mouse transfected with mouse B16-Luc cells assessed as behavioral abnormalities at 5 mg/kg, sc qd treated for 7 days; assay type: organism-based; conditions: in vivo, 168 h, time 7 day
# [24] = Toxicity in BALB/c mouse transfected with mouse B16-Luc cells assessed as behavioral abnormalities at 5 mg/kg, sc qd treated for 7 days; assay type: organism-based; conditions: in vivo, 168 h, time 7 day
# B16 [25] = assay: Anticancer activity against mouse B16-Luc cells transfected in C57BL/6 mouse assessed as relative tumor weight at 5 mg/kg, ip qd treated for 7 days (reference value: 8 + /- 4.1 g); assay type: functional; conditions: time 7 day
# B16 [26] = assay: Anticancer activity against mouse B16-Luc cells transfected in BALB/c mouse assessed as relative tumor weight at 5 mg/kg, ip qd treated for 7 days (reference value: 5.3 + /-1.4 g); assay type: functional; conditions: time 7 day
# B16 [27] = assay: Anticancer activity against mouse B16-Luc cells transfected in C57BL/6 mouse assessed as tumor inhibition rate at 5 mg/kg, ip qd treated for 7 days; assay type: functional; conditions: 168 h, time 7 day
# B16 [28] = assay: Anticancer activity against mouse B16-Luc cells transfected in BALB/c mouse assessed as tumor inhibition rate at 5 mg/kg, ip qd treated for 7 days; assay type: functional; conditions: 168 h, time 7 day
# B16 [29] = assay: Anticancer activity against mouse B16-Luc cells transfected in C57BL/6 mouse assessed as increase in tumor necrotic area at 5 mg/kg, ip qd treated for 7 days by H and E staining based microscopy relative to control; assay type: functional, organism-based; conditions: time 7.0 day
# B16 [30] = assay: Anticancer activity against mouse B16-Luc cells transfected in BALB/c mouse assessed as increase in tumor necrotic area at 5 mg/kg, ip qd treated for 7 days by H and E staining based microscopy relative to control; assay type: functional, organism-based; conditions: time 7.0 day
# B16 [31] = assay: Anticancer activity against mouse B16-Luc cells transfected in C57BL/6 mouse assessed as cell atypia in tumor tissue at 5 mg/kg, ip qd treated for 7 days by H and E staining based microscopy; assay type: functional, organism-based; conditions: time 7.0 day
# B16 [32] = assay: Anticancer activity against mouse B16-Luc cells transfected in C57BL/6 mouse assessed as nuclear pyknosis in tumor tissue at 5 mg/kg, ip qd treated for 7 days by H and E staining based microscopy; assay type: functional, organism-based; conditions: time 7.0 day
# B16 [33] = assay: Anticancer activity against mouse B16-Luc cells transfected in C57BL/6 mouse assessed as cellular debris in tumor tissue at 5 mg/kg, ip qd treated for 7 days by H and E staining based microscopy; assay type: functional, organism-based; conditions: time 7.0 day
# B16 [34] = assay: Anticancer activity against mouse B16-Luc cells transfected in BALB/c mouse assessed as cell atypia in tumor tissue at 5 mg/kg, ip qd treated for 7 days by H and E staining based microscopy; assay type: functional, organism-based; conditions: time 7.0 day
# B16 [35] = assay: Anticancer activity against mouse B16-Luc cells transfected in BALB/c mouse assessed as nuclear pyknosis in tumor tissue at 5 mg/kg, ip qd treated for 7 days by H and E staining based microscopy; assay type: functional, organism-based; conditions: time 7.0 day
# B16 [36] = assay: Anticancer activity against mouse B16-Luc cells transfected in BALB/c mouse assessed as cellular debris in tumor tissue at 5 mg/kg, ip qd treated for 7 days by H and E staining based microscopy; assay type: functional, organism-based; conditions: time 7.0 day
# B16 [37] = assay: Anticancer activity against mouse B16-Luc cells transfected in C57BL/6 mouse assessed as inflammatory cell infiltration in tumor tissue at 5 mg/kg, ip qd treated for 7 days by H and E staining based microscopy; assay type: functional, organism-based; conditions: time 7.0 day
# B16 [38] = assay: Anticancer activity against mouse B16-Luc cells transfected in BALB/c mouse assessed as inflammatory cell infiltration in tumor tissue at 5 mg/kg, ip qd treated for 7 days by H and E staining based microscopy; assay type: functional, organism-based; conditions: time 7.0 day
# Mus musculus [39] = assay: Increase in IL-12 expression in C57BL/6 mouse transfected with mouse B16-Luc cells assessed as […] at 5 mg/kg, ip qd treated for 7 days by ELISA; assay type: functional, organism-based; conditions: time 7.0 day
# [40] = Downregulation of VAVI gene expression in human A431 cells at 50 uM incubated for 24 hrs by qPCR analysis; assay type: functional; conditions: A-431
# [41] = Downregulation of LAMA5 gene expression in human A431 cells at 50 uM incubated for 24 hrs by qPCR analysis; assay type: functional; conditions: A-431
# [42] = Downregulation of HSPG2 gene expression in human A431 cells at 50 uM incubated for 24 hrs by qPCR analysis; assay type: functional; conditions: A-431
# [43] = Downregulation of XIAP gene expression in human A431 cells at 50 uM incubated for 24 hrs by qPCR analysis; assay type: functional; conditions: A-431
compound,measurement,setting,value
CCCCCCCCCCCCC/C=C/[C@@H](O)[C@H](CO[C@@H]1O[C@H](CO)[C@@H](O[C@@H]2O[C@H](CO)[C@H](O)[C@H](O[C@]3(C(=O)O)C[C@H](O)[C@@H](NC(=O)c4cccc(I)c4)[C@H]([C@H](O)[C@H](O)CO)O3)[C@H]2O)[C@H](O)[C@H]1O)NC(=O)CCCCCCCCCCCCCCCCC,inhibition at 50 µM,A-431 [1],36.6%
same,half-life,[2],56.8 h
same,IC50 at 24 h,[3],> 200 µM
same,IC50 at 24 h,[4],> 200 µM
same,IC50 at 24 h,[5],> 200 µM
same,IC50 at 24 h,[6],> 200 µM
same,IC50 at 24 h,[7],> 200 µM
same,Vd,[8],2.4 mL/mg
same,CL,[9],0.483 µL/min/mg
same,Activity,A-431 [10],46.7%
same,Activity,Mus musculus [11],inactive
same,Activity,Mus musculus [12],inactive
same,Activity,Mus musculus [13],inactive
same,Activity,Mus musculus [14],inactive
same,Activity,Mus musculus [15],inactive
same,Activity,Mus musculus [16],inactive
same,inhibition at 50 µM,[17],100%
same,inhibition at 50 µM,[18],50.8%
same,inhibition at 50 µM,[19],55.2%
same,inhibition at 50 µM,[20],52.5%
same,inhibition at 50 µM,[21],14.7%
same,inhibition at 50 µM,[22],14.5%
same,Activity,[23],Non-Toxic
same,Activity,[24],Non-Toxic
same,Activity,B16 [25],4.3 g
same,Activity,B16 [26],5.3 g
same,inhibition in vivo at 5 mg/kg,B16 [27],46.2%
same,inhibition in vivo at 5 mg/kg,B16 [28],29.2%
same,Activity,B16 [29],Active
same,Activity,B16 [30],Active
same,Activity,B16 [31],Active
same,Activity,B16 [32],Active
same,Activity,B16 [33],Active
same,Activity,B16 [34],Active
same,Activity,B16 [35],Active
same,Activity,B16 [36],Active
same,Activity,B16 [37],Active
same,Activity,B16 [38],Active
same,Activity,Mus musculus [39],inactive
same,inhibition at 50 µM,[40],93.4%
same,inhibition at 50 µM,[41],54.1%
same,inhibition at 50 µM,[42],33.4%
same,inhibition at 50 µM,[43],46.2%
